{"source": "patent US20040022788A1", "about": "“Compositions and methods for promoting or inhibiting angiogenesis” (priority 1998, published 2004)", "key": {"[1]": {"test_system": "plasminogen binding sites on HUVEC", "test": "Competition binding assay, 125I-labeled plasminogen on HUVEC", "parameters": "species or system human", "conditions": "1.0 μM 125I-labeled plasminogen; 100-fold molar excess of unlabeled angiostatin", "method": "FIG. 2. Competition binding assay between plasminogen and angiostatin. HUVEC were plated at a density of 10,000 cells/well and incubated with 1.0 μM ^125I-labeled plasminogen in the presence of 100-fold molar excess of unlabeled angiostatin for 1 h at 4° C. Cells were washed and the remaining radioactivity was quantified by γ-counting.\nBinding Assays. Ligands were radioiodinated by using Iodobeads (Pierce), repurified on L-lysine-Sepharose, eluted with 100 mM ε-aminocaproic acid, and dialyzed in PBS, pH 7.0 before use in binding assays. HUVEC were plated at a density of 5,000 or 10,000 cells/well and incubated with increasing concentrations of ^125I-labeled ligand in media containing 1% BSA for 1 h at 4° C. in 96-well plates. Wells were washed, and remaining bound radioactivity was quantified by using an LKB 1272 γ-radiation counter. Nonspecific binding was measured in the presence of excess unlabeled ligand."}, "HUVEC": {"test_system": "HUVEC", "test": "HUVEC cell proliferation assay (CyQUANT)", "format": "cell-based, human", "conditions": "1 μM; 24 hrs; n = 3", "method": "Cell Proliferation Assay. HUVEC were plated at a density of 5000 cells/well in media depleted of fetal calf serum (FCS) overnight to allow the cells to become quiescent. Fresh media containing 5% FCS, 10 ng/ml basic fibroblast growth factor (bFGF) and 3 ng/ml vascular endothelial growth factor (VEGF) were added to the wells along with angiostatin (1.0 μM), antibody directed against the recombinant human alpha-subunit of ATP synthase (1:10 dil), antibody directed against the recombinant human beta-subunit of ATP synthase (1:10 dil), pre-immune serum (1:10 dil) or cycloheximide ([…]). Cell density was measured after 24 hrs using CyQUANT Cell Proliferation Assay Kit (Molecular Probes) in a fluorometric plate reader (Molecular Devices). The absorbance values used to calculate the percent proliferation of the cells ranged from 1.24 or 1.00 for treated and 2.57 for untreated."}, "[2]": {"target": "T1, ATP synthase on the surface of HUVEC (Homo sapiens, UniProt P05496+P06576+P25705)", "T1 construct": "endogenous in cells; host or cells: HUVEC (primary human umbilical vein endothelial cells)", "test": "Cell-surface ATP generation by bioluminescent luciferase assay", "format": "cell-based", "method": "Cell-surface ATP Assay. […] Cells were treated with (1 μM) angiostatin or (0.1 mg/mL) oligomycin for 1 hr at 37° C. All cells were then incubated with 0.1 Ci ^32P and 0.1 Ci ([…]) [2,8-^3H]-ADP (NEN Life Sciences) for 1 min. Supernatants were removed and centrifuged before assaying for ATP production by thin layer chromatography (TLC) or by firefly luciferase assay. ATP Generation by Bioluminescent Luciferase Assay. […] Louis, Mo.). In this firefly luciferin-luciferase reaction, only ATP is readily detected since the enzymatic reaction of firefly luciferase to oxidize luciferin is specific for ATP relative to all other nucleotides. Samples were injected with the ATP assay mixture and recordings were made in a LuminoskanRS (LabSystems, Franklin, Mass.) over a 10 s period. The response in a given sample or standard was quantified as area under the peak of the response and averaged for duplicate determinations. Data are expressed as picomoles of ATP produced per cell based on standards determined under the same conditions with each experiment. Angiostatin was prepared as described in Sottrup-Jensen, […]., Petersen, T. E. & Magnusson, S. (1978) Progress in Chemical Fibrinolysis and Thrombolysis (Raven Press, New York)."}, "[3]": {"target": "T2, purified bovine F1 ATP synthase (Bos taurus, UniProt P00829+P19483)", "T2 construct": "from tissue; host or cells: bovine heart mitochondria", "test": "F1 activity assay (ATPase, coupled NADH oxidation at 340 nm)", "format": "biochemical", "conditions": "angiostatin", "method": "FIG. 12 is a bar graph showing the inhibition of purified F1 ATP synthase by angiostatin. Purified F1 ATP synthase activity was measured spectrophotometrically at λ=340 nm by coupling the production of ADP to the oxidation of NADH via the pyruvate kinase and lactate dehydrogenase reaction in which a decrease in the absorbance at λ=340 nm indicates active protein (dark six membered rings). […] Control antibodies had no effect on activity (light circles and squares). Representative data shown, n=3.\nPurification of Bovine Heart F1 ATP Synthase and F1 Activity Assay. Fresh bovine heart mitochondria were obtained as previously described (23) and sonicated to yield sub-mitochondrial particles (24). The F1 portion was separated from membrane-bound FO by chloroform extraction. The aqueous layer was centrifuged at 105,000×g to remove particulate matter before purifying over an S300 gel filtration column. […] ATPase activity was measured spectrophotometrically by monitoring at λ=340 nm by coupling the production of ADP to the oxidation of NADH via pyruvate kinase and lactate dehydrogenase reactions as described in Zheng,& Ramirez, Biochem Biophys Res Commun 261(25):499-503 (1999)."}}, "note": "Entries after “also recorded” stand apart in the source; their conditions may differ."}
{"substance": "angiostatin", "values": [{"measurement": "inhibition of 125I-labeled plasminogen binding", "setting": "[1]", "value": "unaffected; also recorded: no inhibition; also recorded: not inhibited"}, {"measurement": "Percent Inhibition (+/− S.E.M.) of HUVEC proliferation", "setting": "HUVEC", "value": "57.2 +/− 1.16%"}, {"measurement": "Percent Inhibition (+/− S.E.M.) of ATP generation", "setting": "[2]; 1 μM, 50 μM ADP", "value": 81, "unit": "%"}, {"measurement": "inhibition of ATP generation with increasing concentrations", "setting": "[2]; increasing concentrations of angiostatin", "value": "dose-dependent manner"}, {"measurement": "inhibition of purified F1 ATPase activity", "setting": "[3]", "value": "completely inhibited"}]}
